Assay results reported in patent publication US7105502B2, “Nitric oxide-releasing imidate and thioimidate diazeniumdiolates” (The United States of America as represented by the …, priority 2001, dated 2006).

Assays:
[1] = Detection of NO released in solution, headspace swept with argon into a chemiluminescence detector; type: physicochemical
Procedure: The nitrites and all solvents were purchased from Aldrich Chemical Company (Milwaukee, Wis.). Nitric oxide was obtained form Matheson Gas Products (Montgomeryville, Pa.). The ^1H NMR and ^13C NMR spectra were recorded in D2O (^1H at 300 MHz; ^13C at 75 MHz). Ultraviolet spectra (10 mM NaOH unless otherwise specified) and kinetic information were obtained on a Hewlett Packard 8452A UV-visible spectrophotometer with a thermostated cell holder. Infrared data was recorded on a Perkin-Elmer 1430 infrared spectrometer. Nitric oxide was measured with a Thermal Energy Analyzer model 502A (Thermedics, Inc., Woburn, Mass.). Melting points are uncorrected. Elemental analyses were performed by Atlantic Microlab, Inc. (Norcross, Ga.).
(§1) For the detection of NO, selected compounds from the examples were dissolved in either pH 7.4 buffer or 10% H2SO4, and the headspace was swept with argon into a chemiluminescence detector. The detection of nitrous oxide (N2O), formed from the dimerization and dehydration of HNO, was done by gas chromatography in both pH 7.4 buffer and 0.1 M HCl.

[2] = Detection of nitrous oxide (N2O) by gas chromatography; type: physicochemical; conditions: acid (0.1 M HCl)
Procedure: as §1

| Substance | NO (mole gas/mole cmpd) ([1]; acid (10% H2SO4)) | NO (mole gas/mole cmpd) ([1]; pH 7.4 buffer) | N2O (mole gas/mole cmpd) [2] [mole gas/mole cmpd] |
| --- | --- | --- | --- |
| 1-naphthyl diazeniumdiolate amide [Example 9] | 0.02 | 0.16 |  |
| benzyl diazeniumdiolate methoxy imidate [Example 2] | 0.46 | 0.36 | 1.52 |
